According to patent US20100292205A1, “Pyrimidone Compounds As GSK-3 Inhibitors” (PFIZER INC., priority 2006, published 2010):

Each compound was assayed against T1, Recombinant human GSK3β (Homo sapiens, UniProt P49841) (assay: GSK-3β (Glycogen Synthase Kinase) cell free enzyme assay). Conditions: cell free enzyme assay; Examples 62-155.
T1 construct: His-tag; made in house; host or cells: Sf9 insect cells / baculovirus
Assay type: biochemical
Procedure: Assay Protocol for GSK-3β (Glycogen Synthase Kinase) in a Cell Free Enzyme Assay
Recombinant human GSK3β was expressed in SF9/Baculo virus cells. His-tag protein was purified by affinity chromatography to a Ni-NTA Superflow column. Enzyme activity was assayed as the incorporation of [33P] from the gamma phosphate of [33P]ATP (PerkinElmer) into biotinylated peptide substrate bio-LC-S-R-H-S-S-P-H-Q-pS-E-D-E-E-E-OH (Anaspec). Reactions were carried out in a buffer containing 8 mM MOPS (pH 7.0), 10 mM Magnesium Acetate, 0.2 mM EDTA, 1 mM DTT and 2 uM cold ATP. The 33P-ATP was added for 0.025 uCi/well (120 uL) and the final concentration of substrate was 1.0 uM. Enzyme was preincubated with test agent for 30 minutes at room temperature followed by initiation of the reaction by the addition of substrate mix. Incubations were carried out at RT for 60 min. Reactions were stopped by addition of 0.66 volume of buffer containing: 12.5 mM EDTA, 0.25% Triton-X 100, 125 uM ATP, and 6.2 mg/ml streptavidin coated SPA beads (Amersham) in PBS without Ca or Mg. Radioactivity associated with the beads was quantified by scintillation counting of CPM in a Trilux counter (PerkinElmer).
Examples 42 to 60 were prepared using the analogous procedure described to prepare Example 41, substituting the appropriate starting material (Examples 1 to 35) and coupling with the appropriate acid. The assay protocol used is the percent inhibition at 1 μM for GSK-3β in the cell free enzyme assay described above.

T1 sequence (P49841 whole entry): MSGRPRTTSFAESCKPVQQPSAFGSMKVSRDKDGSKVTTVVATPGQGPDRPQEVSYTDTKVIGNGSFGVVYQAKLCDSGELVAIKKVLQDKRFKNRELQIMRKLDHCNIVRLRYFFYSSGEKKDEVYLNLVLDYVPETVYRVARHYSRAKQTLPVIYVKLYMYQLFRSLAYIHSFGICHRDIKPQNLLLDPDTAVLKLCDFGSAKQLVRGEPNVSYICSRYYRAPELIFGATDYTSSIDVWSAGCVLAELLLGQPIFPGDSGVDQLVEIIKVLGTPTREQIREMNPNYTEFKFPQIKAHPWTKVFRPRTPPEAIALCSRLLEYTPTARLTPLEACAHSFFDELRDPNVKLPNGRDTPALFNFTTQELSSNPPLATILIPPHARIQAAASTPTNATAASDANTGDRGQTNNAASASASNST

| IC50 [nM] | Structure (SMILES) |
| --- | --- |
| 147 | CCN(c1nc(-c2ccncc2)cc(=O)n1C)C1CCCN(C(=O)Cc2ccccc2)C1 (centres unmarked) [Example 91, 2-{Ethyl[1-(phenylacetyl)piperidin-3-yl]amino}-3-methyl-6-pyridin-4-ylpyrimidin-4(3H)-one] |
| 105 | CCN(c1nc(-c2ccncc2)cc(=O)n1C)C1CCN(C(=O)Cc2ccccc2)CC1 [Example 92, 2-{Ethyl[1-(phenylacetyl)piperidin-4-yl]amino}-3-methyl-6-pyridin-4-ylpyrimidin-4(3H)-one] |
| 878 | Cn1c(NC[C@@H]2CCCN2C(=O)Cc2ccccc2)nc(-c2ccncc2)cc1=O [Example 93, 3-Methyl-2-({[(2S)-1-(phenylacetyl)pyrrolidin-2-yl]methyl}amino)-6-pyridin-4-ylpyrimidin-4(3H)-one] |
| 18.2 | CCN(C[C@H]1CCCN1C(=O)Cc1ccccc1)c1nc(-c2ccncc2)cc(=O)n1C [Example 94, 2-(Ethyl{[(2R)-1-(phenylacetyl)pyrrolidin-2-yl]methyl}amino)-3-methyl-6-pyridin-4-ylpyrimidin-4(3H)-one] |
| 1380 | Cn1c(NCC2CN(C(=O)Cc3ccccc3)C2)nc(-c2ccncc2)cc1=O [Example 95, 3-Methyl-2-({[1-(phenylacetyl)azetidin-3-yl]methyl}amino)-6-pyridin-4-ylpyrimidin-4(3H)-one] |
| 3.92 | CN(c1nc(-c2ccncc2F)cc(=O)n1C)[C@H]1[C@@H]2CN(C(=O)c3cccc(Cl)n3)C[C@@H]21 [Example 96, 2-[{(1R,5S,6s)-3-[(6-Chloropyridin-2-yl)carbonyl]-3-azabicyclo[3.1.0]hex-6-yl}(methyl)amino]-6-(3-fluoropyridin-4-yl)-3-methylpyrimidin-4(3H)-one] |
| 55.4 | CN(c1nc(-c2ccncc2F)cc(=O)n1C)[C@H]1[C@@H]2CN(C(=O)CC(F)(F)F)C[C@@H]21 [Example 97, 6-(3-Fluoropyridin-4-yl)-3-methyl-2-{methyl[(1R,5S,6s)-3-(3,3,3-trifluoropropanoyl)-3-azabicyclo[3.1.0]hex-6-yl]amino}pyrimidin-4(3H)-one] |
| 4.39 | CN(c1nc(-c2ccncc2F)cc(=O)n1C)[C@H]1[C@@H]2CN(C(=O)c3ccccc3C(F)(F)F)C[C@@H]21 [Example 98, 6-(3-Fluoropyridin-4-yl)-3-methyl-2-(methyl{(1R,5S,6s)-3-[2-(trifluoromethyl)benzoyl]-3-azabicyclo[3.1.0]hex-6-yl}amino)pyrimidin-4(3H)-one] |
| 1.46 | COc1cccc(C(=O)N2C[C@@H]3[C@H](C2)[C@H]3N(C)c2nc(-c3ccncc3F)cc(=O)n2C)c1 [Example 99, 6-(3-Fluoropyridin-4-yl)-2-{[(1R,5S,6s)-3-(3-methoxybenzoyl)-3-azabicyclo[3.1.0]hex-6-yl](methyl)amino}-3-methylpyrimidin-4(3H)-one] |
| 9.02 | CCCC(C)C(=O)N1C[C@@H]2[C@H](C1)[C@H]2N(C)c1nc(-c2ccncc2F)cc(=O)n1C (stereo partly drawn) [Example 100, 6-(3-Fluoropyridin-4-yl)-3-methyl-2-{methyl[(1R,5S,6s)-3-(2-methylpentanoyl)-3-azabicyclo[3.1.0]hex-6-yl]amino}pyrimidin-4(3H)-one] |
| 13.6 | COc1cccc(CC(=O)N2C[C@@H]3[C@H](C2)[C@H]3N(C)c2nc(-c3ccncc3F)cc(=O)n2C)c1 [Example 101, 6-(3-Fluoropyridin-4-yl)-2-[{(1R,5S,6s)-3-[(3-methoxyphenyl)acetyl]-3-azabicyclo[3.1.0]hex-6-yl}(methyl)amino]-3-methylpyrimidin-4(3H)-one] |
| 16 | CSCCC(=O)N1C[C@@H]2[C@H](C1)[C@H]2N(C)c1nc(-c2ccncc2F)cc(=O)n1C [Example 102, 6-(3-Fluoropyridin-4-yl)-3-methyl-2-(methyl{(1R,5S,6s)-3-[3-(methylthio)propanoyl]-3-azabicyclo[3.1.0]hex-6-yl}amino)pyrimidin-4(3H)-one] |
| 2.77 | CCC(C)C(=O)N1C[C@@H]2[C@H](C1)[C@H]2N(C)c1nc(-c2ccncc2F)cc(=O)n1C (stereo partly drawn) [Example 103, 6-(3-Fluoropyridin-4-yl)-3-methyl-2-{methyl[(1R,5S,6s)-3-(2-methylbutanoyl)-3-azabicyclo[3.1.0]hex-6-yl]amino}pyrimidin-4(3H)-one] |
| 16.1 | Cc1cc(C(=O)N2C[C@@H]3[C@H](C2)[C@H]3N(C)c2nc(-c3ccncc3F)cc(=O)n2C)cc(Cl)n1 [Example 104, 2-{[(1R,5S,6s)-3-(2-Chloro-6-methylisonicotinoyl)-3-azabicyclo[3.1.0]hex-6-yl](methyl)amino}-6-(3-fluoropyridin-4-yl)-3-methylpyrimidin-4(3H)-one] |

Continued, compound first:

| Structure (SMILES) | IC50 [nM] |
| --- | --- |
| CCN(c1nc(-c2ccncc2)cc(=O)n1C)C1CCCN(C(=O)c2ccccc2)C1 (centres unmarked) [Example 73, 2-[(1-Benzoylpiperidin-3-yl)(ethyl)amino]-3-methyl-6-pyridin-4-ylpyrimidin-4(3H)-one] | 345 |
| CCN(c1nc(-c2ccncc2)cc(=O)n1C)C1CCN(C(=O)c2ccccc2)CC1 [Example 74, 2-[(1-Benzoylpiperidin-4-yl)(ethyl)amino]-3-methyl-6-pyridin-4-ylpyrimidin-4(3H)-one] | 144 |
| Cn1c(NC[C@@H]2CCCN2C(=O)c2ccccc2)nc(-c2ccncc2)cc1=O [Example 75, 2-({[(2S)-1-Benzoylpyrrolidin-2-yl]methyl}amino)-3-methyl-6-pyridin-4-ylpyrimidin-4(3H)-one] | 183 |
| Cn1c(NCC2CN(C(=O)c3ccccc3)C2)nc(-c2ccncc2)cc1=O [Example 76, 2-{[(1-Benzoylazetidin-3-yl)methyl]amino}-3-methyl-6-pyridin-4-ylpyrimidin-4(3H)-one] | 72.4 |
| CCN(C[C@H]1CCCN1C(=O)c1ccccc1)c1nc(-c2ccncc2)cc(=O)n1C [Example 77, 2-[{[(2R)-1-Benzoylpyrrolidin-2-yl]methyl}(ethyl)amino]-3-methyl-6-pyridin-4-ylpyrimidin-4(3H)-one] | 29.5 |
| Cn1c(NC[C@H]2CCCN2C(=O)c2ccccc2)nc(-c2ccncc2)cc1=O [Example 78, 2-({[(2R)-1-Benzoylpyrrolidin-2-yl]methyl}amino)-3-methyl-6-pyridin-4-ylpyrimidin-4(3H)-one] | 277 |
| Cn1c(NCC2CCN(C(=O)c3ccccc3)C2)nc(-c2ccncc2)cc1=O (centres unmarked) [Example 79, 2-{[(1-Benzoylpyrrolidin-3-yl)methyl]amino}-3-methyl-6-pyridin-4-ylpyrimidin-4(3H)-one] | 69.9 |
| Cn1c(NC2CCCN(C(=O)Cc3ccccc3)CC2)nc(-c2ccncc2)cc1=O (centres unmarked) [Example 80, 3-Methyl-2-{[1-(phenylacetyl)azepan-4-yl]amino}-6-pyridin-4-ylpyrimidin-4(3H)-one] | 53.8 |
| Cn1c(NC2CCN(C(=O)Cc3ccccc3)C2)nc(-c2ccncc2)cc1=O (centres unmarked) [Example 81, 3-Methyl-2-{[1-(phenylacetyl)pyrrolidin-3-yl]amino}-6-pyridin-4-ylpyrimidin-4(3H)-one] | 111 |
| Cn1c(NC2CN(C(=O)Cc3ccccc3)C2)nc(-c2ccncc2)cc1=O [Example 82, 3-Methyl-2-{[1-(phenylacetyl)azetidin-3-yl]amino}-6-pyridin-4-ylpyrimidin-4(3H)-one] | 818 |
| Cn1c(N[C@H]2CN(C(=O)Cc3ccccc3)C[C@@H]2F)nc(-c2ccncc2)cc1=O [Example 83, 2-{[(3S,4S)-4-Fluoro-1-(phenylacetyl)pyrrolidin-3-yl]amino}-3-methyl-6-pyridin-4-ylpyrimidin-4(3H)-one] | 39 |
| Cn1c(NC2CCCCN(C(=O)Cc3ccccc3)C2)nc(-c2ccncc2)cc1=O (centres unmarked) [Example 84, 3-Methyl-2-{[1-(phenylacetyl)azepan-3-yl]amino}-6-pyridin-4-ylpyrimidin-4(3H)-one] | 674 |
| Cn1c(NC2CCN(C(=O)Cc3ccccc3)CC2)nc(-c2ccncc2)cc1=O [Example 85, 3-Methyl-2-{[1-(phenylacetyl)piperidin-4-yl]amino}-6-pyridin-4-ylpyrimidin-4(3H)-one] | 333 |
| Cn1c(NC2CCCN(C(=O)Cc3ccccc3)C2)nc(-c2ccncc2)cc1=O (centres unmarked) [Example 86, 3-Methyl-2-{[1-(phenylacetyl)piperidin-3-yl]amino}-6-pyridin-4-ylpyrimidin-4(3H)-one] | 136 |
| Cn1c(N[C@@H]2CN(C(=O)Cc3ccccc3)C[C@@H]2F)nc(-c2ccncc2)cc1=O [Example 87, 2-{[(3R,4S)-4-Fluoro-1-(phenylacetyl)pyrrolidin-3-yl]amino}-3-methyl-6-pyridin-4-ylpyrimidin-4(3H)-one] | 285 |
| CN(c1nc(-c2ccncc2)cc(=O)n1C)C1CCCN(C(=O)Cc2ccccc2)CC1 (centres unmarked) [Example 88, 3-Methyl-2-{methyl[1-(phenylacetyl)azepan-4-yl]amino}-6-pyridin-4-ylpyrimidin-4(3H)-one] | 102 |
| CCN(c1nc(-c2ccncc2)cc(=O)n1C)C1CCCN(C(=O)Cc2ccccc2)CC1 (centres unmarked) [Example 89, 2-{Ethyl[1-(phenylacetyl)azepan-4-yl]amino}-3-methyl-6-pyridin-4-ylpyrimidin-4(3H)-one] | 64.6 |
| CN(c1nc(-c2ccncc2)cc(=O)n1C)C1CCN(C(=O)Cc2ccccc2)C1 (centres unmarked) [Example 90, 3-Methyl-2-{methyl[1-(phenylacetyl)pyrrolidin-3-yl]amino}-6-pyridin-4-ylpyrimidin-4(3H)-one] | 133 |
